Test results as given in patent publication US20110070232A1, “Combination Therapy with an Antitumor Alkaloid” (Pharma Mar, S.A., priority 2008, published 2011).
Values after ≈ are worked out from the molar mass of the structure shown. Read-outs that look alike come from different tables or passages of the source.

Assays:
MRI-H-254 tumors = assay type: in vivo, mice
Protocol: (§1) Female athymic nude mice (Harlan Sprague Dawley, Madison, Wis.) were utilized for all experiments. Animals were housed in ventilated rack caging with food and water ad libitum. The mice were acclimated for at least 5 days prior to tumor implantation with tumor fragments.
Treatments were initiated on DPI 20.
(§2) Tumor size measurements were recorded twice weekly from the treatment initiation until the termination of the study.
(§3) Mean, standard deviation and standard error of the mean were determined for tumor volume for all animal groups at all assessments. Student's t test was performed on tumor volumes at each measurement day, including at the end of the study, to determine whether there were any statistically significant differences between combination treatment groups and single monotherapy treatment groups.

Hs746T tumors = assay type: in vivo, mice; details: for % T/C on day 14 / % T/C on day 19 / % T/C on day 22 / % T/C on day 26 / % T/C on day 29 / % T/C on day 32 / % T/C on day 39: PM00104 0.90 IV, DPI 14, 21, 28
Protocol: Female athymic nude mice (Harlan Sprague Dawley, Madison, Wis.) were utilized for all experiments. Animals were housed in ventilated rack caging with food and water ad libitum. The mice were acclimated for at least 5 days prior to tumor implantation with a tumor cell suspension.
The tumor model used in these studies was Hs746T cell line, which was obtained from the ATCC (Manassas, Va.).
(§4) Treatments were initiated on DPI 14.
as §2, §3

[1] = test system: AGS human gastric carcinoma cell line; assay: IC50 determination, MTS assay, 72 h (Example 1); assay type: cell-based; details: 72 hours of drug exposure
Protocol: (§5) The human gastric carcinoma cell lines selected for this assay were the following: Hs746T, HGC-27, and AGS cell lines. Hs746T and AGS cell lines were grown in Dulbecco's modified Eagle's medium (DMEM) supplemented with 10% Fetal Bovine Serum (FBS), 1.5 g/L sodium bicarbonate, 4.5 g/L glucose and 4 mM L-glutamine. HGC-27 cell line was grown in Iscove's modified Dulbecco's medium (IMDM) supplemented with 20% FBS and 2 mM L-glutamine.
(§6) The day before plating, the cells were fed with fresh, complete growth media. On the harvest (plating) day, cells were counted by Trypan Blue exclusion staining method.
(§7) Cells were harvested and seeded in 96 well microtiter plates at 10,000 cells density in 150 μL of media and incubated for 24 hours to allow the cells to attach before drug addition. To collect reference data, the MTS assay was done on untreated cells at time 0 (after incubation of cells for 24 hours).
(§8) The cytotoxic effect was measured by the MTS Assay (Tetrazolium), which is a colorimetric method for determining the number of viable cells. After the incubation period (24 hours for the Day 0 plate and 72 hours for the Test and Control plates), 25 μL of MTS+PMS solution was added to each microtiter well and incubated for 4 hours at 37° C. Plates were then removed from incubator and placed on plate shaker for 5 minutes (covered with aluminum foil for protection from light). Optical densities were read at 490 nm on spectrophotometer plate reader.
(§9) IC50 values were calculated from an average of two to four assays for each of the test agents.

[2] = test system: Hs746T human gastric carcinoma cell line; assay: IC50 determination, MTS assay, 72 h (Example 1); assay type: cell-based; details: 72 hours of drug exposure
Protocol: as §5, §6, §7, §8, §9

[3] = test system: HGC-27 human gastric carcinoma cell line; assay: IC50 determination, MTS assay, 72 h (Example 1); assay type: cell-based; details: 72 hours of drug exposure
Protocol: as §5, §6, §7, §8, §9

NCI-H460 tumors = assay type: in vivo, mice
Protocol: Female athymic nude mice (Harlan Sprague Dawley, Madison, Wis.) were utilized for all experiments. Animals were housed in ventilated rack caging with food and water ad libitum. The mice were acclimated for at least 5 days prior to tumor implantation.
The tumor model used in this study was NCI-H460 cell line which is a human NSCLC cell line obtained from the ATCC (Manassas, Va.). […] Cells from in vitro passage 7 were implanted SC into study mice using a 1 ml syringe with a 13G trocar: 5×10^6 cells/mouse in 0.2 ml 50% Matrigel/50% RPMI medium of NCI-H460 without serum or antibiotics. Bacterial culture was taken on cells used to implant the study.
Treatments were initiated on DPI 9.
Tumor size measurements were recorded 2-3 times/week from the treatment initiation until the termination of the study.
as §3

SK-OV-3 tumors = assay type: in vivo, mice
Source text: as §1
The tumor model used in these studies was SK-OV-3 cell line, which was obtained from the ATCC (Manassas, Va.).
SK-OV-3 fragments were removed from donor animals and tissue was debrided of membrane and any hemorrhagic and necrotic areas and 3-4 mm^3 fragments, from in vivo passage 2, were implanted SC on the right flank of each animal, using a 13G trochar. Bacterial culture was taken on cells used to implant the study.
as §4, §2, §3

[4] = PM00104 0.90 IV, docetaxel 8 IP, oxaliplatin 4 IP mg/kg/day (G4, G6, G8, G10), DPI 20, 27, 34
[5] = PM00104 0.90 IV, docetaxel 16 IP, oxaliplatin 8 IP mg/kg/day (G2, G3, G5, G7, G9), DPI 20, 27, 34
[6] = docetaxel 8 IP, oxaliplatin 4 IP mg/kg/day (G4, G6, G8, G10)
[7] = docetaxel 16 IP, oxaliplatin 8 IP mg/kg/day (G2, G3, G5, G7, G9)
[8] = Bevacizumab […] IP, alone or with PM00104 0.9 mg/kg/day IV
[9] = PM00104 0.9 mg/kg/day IV and/or Bevacizumab 5 mg/kg/day IP
[10] = Bevacizumab […] IP, alone or with PM00104 0.90 mg/kg/day IV
[11] = PM00104 0.90 mg/kg/day IV and/or Bevacizumab 5 mg/kg/day IP

## CC(=O)O[C@@]12CO[C@@H]1C[C@H](O)[C@@]1(C)C(=O)[C@H](O)C3=C(C)[C@@H](OC(=O)[C@H](O)[C@@H](NC(=O)OC(C)(C)C)c4ccccc4)C[C@@](O)([C@@H](OC(=O)c4ccccc4)[C@H]21)C3(C)C [Docetaxel, docetaxel]
MRI-H-254 tumors; [4]
  % T/C on day 20: 97.7%
  % T/C on day 23: 122.8%
  % T/C on day 27: 93.1%
  % T/C on day 30: 102.6%
  % T/C on day 33: 114.1%
  % T/C on day 36: 119.2%
  % T/C on day 40: 120.1%
  % T/C on day 48: 97.3%
MRI-H-254 tumors; [5]
  % T/C on day 20: 101.4%
  % T/C on day 23: 115.4%
  % T/C on day 27: 90.9%
  % T/C on day 33: 115.8%
  % T/C on day 36: 108.4%
  % T/C on day 40: 100.4%
  % T/C on day 48: 76.7%
MRI-H-254 tumors; day 20, PM00104 0.9 and docetaxel 8 mg/kg/day
  % Inhibition: 2.3%
MRI-H-254 tumors; day 20, PM00104 0.9 and docetaxel 16 mg/kg/day
  % Inhibition: −1.4%
MRI-H-254 tumors; day 23, PM00104 0.9 and docetaxel 8 mg/kg/day
  % Inhibition: −22.8%
MRI-H-254 tumors; day 23, PM00104 0.9 and docetaxel 16 mg/kg/day
  % Inhibition: −15.4%
MRI-H-254 tumors; day 27, PM00104 0.9 and docetaxel 8 mg/kg/day
  % Inhibition: 6.9%
MRI-H-254 tumors; day 27, PM00104 0.9 and docetaxel 16 mg/kg/day
  % Inhibition: 9.1%
MRI-H-254 tumors; day 30, PM00104 0.9 and docetaxel 8 mg/kg/day
  % Inhibition: −2.6%
MRI-H-254 tumors; day 30, PM00104 0.9 and docetaxel 16 mg/kg/day
  % Inhibition: −17.1%
MRI-H-254 tumors; day 33, PM00104 0.9 and docetaxel 8 mg/kg/day
  % Inhibition: −14.1%
MRI-H-254 tumors; day 33, PM00104 0.9 and docetaxel 16 mg/kg/day
  % Inhibition: −15.8%
MRI-H-254 tumors; day 36, PM00104 0.9 and docetaxel 8 mg/kg/day
  % Inhibition: −19.2%
MRI-H-254 tumors; day 36, PM00104 0.9 and docetaxel 16 mg/kg/day
  % Inhibition: −8.4%
MRI-H-254 tumors; day 40, PM00104 0.9 and docetaxel 8 mg/kg/day
  % Inhibition: −20.1%
MRI-H-254 tumors; day 40, PM00104 0.9 and docetaxel 16 mg/kg/day
  % Inhibition: −0.4%
MRI-H-254 tumors; day 48, PM00104 0.9 and docetaxel 8 mg/kg/day
  % Inhibition: 2.7%
MRI-H-254 tumors; day 48, PM00104 0.9 and docetaxel 16 mg/kg/day
  % Inhibition: 23.3%
Hs746T tumors; [6]
  % T/C on day 14: 100.8%
  % T/C on day 19: 49.0%
  % T/C on day 22: 41.6%
  % T/C on day 26: 32.5%
  % T/C on day 29: 29.4%
  % T/C on day 32: 39.4%
  % T/C on day 39: 55.1%
Hs746T tumors; [7]
  % T/C on day 14: 100.3%
  % T/C on day 19: 33.6%
  % T/C on day 22: 21.3%
  % T/C on day 26: 7.2%
  % T/C on day 29: 3.5%
  % T/C on day 32: 1.5%
  % T/C on day 39: −0.6%
Hs746T tumors; day 14, PM00104 0.9 and docetaxel 8 mg/kg/day
  % Inhibition: −0.8%
Hs746T tumors; day 14, PM00104 0.9 and docetaxel 16 mg/kg/day
  % Inhibition: −0.3%
Hs746T tumors; day 19, PM00104 0.9 and docetaxel 8 mg/kg/day
  % Inhibition: 51.0%
Hs746T tumors; day 19, PM00104 0.9 and docetaxel 16 mg/kg/day
  % Inhibition: 66.4%
Hs746T tumors; day 22, PM00104 0.9 and docetaxel 8 mg/kg/day
  % Inhibition: 58.4%
Hs746T tumors; day 22, PM00104 0.9 and docetaxel 16 mg/kg/day
  % Inhibition: 78.7%
Hs746T tumors; day 26, PM00104 0.9 and docetaxel 8 mg/kg/day
  % Inhibition: 67.5%
Hs746T tumors; day 26, PM00104 0.9 and docetaxel 16 mg/kg/day
  % Inhibition: 92.8%
Hs746T tumors; day 29, PM00104 0.9 and docetaxel 8 mg/kg/day
  % Inhibition: 70.6%
Hs746T tumors; day 29, PM00104 0.9 and docetaxel 16 mg/kg/day
  % Inhibition: 96.5%
Hs746T tumors; day 32, PM00104 0.9 and docetaxel 8 mg/kg/day
  % Inhibition: 60.6%
Hs746T tumors; day 32, PM00104 0.9 and docetaxel 16 mg/kg/day
  % Inhibition: 98.5%
Hs746T tumors; day 39, PM00104 0.9 and docetaxel 8 mg/kg/day
  % Inhibition: 44.9%
Hs746T tumors; day 39, PM00104 0.9 and docetaxel 16 mg/kg/day
  % Inhibition: 100.6%
[1]; Homo sapiens, read-out: IC50
  IC50: 1.99 µg/mL (≈ 2.46 µM)
[2]; Homo sapiens, read-out: IC50
  IC50: 44.2 µg/mL (≈ 54.7 µM)
[3]; Homo sapiens, read-out: IC50
  IC50: 6.54 µg/mL (≈ 8.1 µM)

## CCc1c2c(nc3ccc(O)cc13)-c1cc3c(c(=O)n1C2)COC(=O)[C@]3(O)CC [SN38, 7-ethyl-10-hydroxycamptothecin]
[1]
  IC50: 0.00549 µg/mL (≈ 0.014 µM)
[2]
  IC50: 0.0582 µg/mL (≈ 0.148 µM)
[3]
  IC50: 0.246 µg/mL (≈ 0.627 µM)

## bevacizumab
NCI-H460 tumors; [8]
  % T/C on day 9: 99.4%
  % T/C on day 13: 81.7%
  % T/C on day 16: 74.3%
  % T/C on day 21: 59.7%
  % T/C on day 24: 52.0%
  % T/C on day 27: 26.9%
  % T/C on day 30: 43.3%
  % T/C on day 38: 96.8%
  % T/C on day 41: 104.7%
NCI-H460 tumors; [9]
  % T/C on day 9: 102.1%
  % T/C on day 13: 91.3%
  % T/C on day 16: 87.6%
  % T/C on day 21: 74.2%
  % T/C on day 24: 68.3%
  % T/C on day 27: 38.7%
  % T/C on day 30: 43.7%
SK-OV-3 tumors; [10]
  % T/C on day 14: 100.5%
  % T/C on day 17: 85.0%
  % T/C on day 21: 61.0%
  % T/C on day 24: 48.4%
  % T/C on day 29: 32.1%
  % T/C on day 32: 29.6%
  % T/C on day 36: 40.3%
  % T/C on day 43: 48.7%
  % T/C on day 50: 47.5%
  % T/C on day 57: 70.0%
SK-OV-3 tumors; [11]
  % T/C on day 14: 100.2%
  % T/C on day 17: 76.6%
  % T/C on day 21: 64.0%
  % T/C on day 24: 42.6%
  % T/C on day 29: 28.0%
  % T/C on day 32: 25.8%
  % T/C on day 36: 30.7%
  % T/C on day 43: 43.8%
  % T/C on day 50: 42.5%
  % T/C on day 57: 46.1%
